Results from publication PMC9179341, “Design of New Potent and Selective Thiophene-Based KV1.3 Inhibitors and Their Potential for Anticancer Activity” (Cancers, 2022).
Entries after “also recorded” stand apart in the source; their conditions may differ.

What was measured:
Format in all cases: cell-based
KV1.3 = KV1.3 (Homo sapiens, UniProt P22001); assay: KV1.3 inhibition, manual voltage-clamp on Xenopus laevis oocytes; conditions: for inhibition at 10 µM: manual voltage-clamp on Xenopus laevis oocytes; for IC50: KV1.3, manual voltage-clamp, Xenopus laevis oocytes
Sequence of KV1.3 (P22001 whole entry): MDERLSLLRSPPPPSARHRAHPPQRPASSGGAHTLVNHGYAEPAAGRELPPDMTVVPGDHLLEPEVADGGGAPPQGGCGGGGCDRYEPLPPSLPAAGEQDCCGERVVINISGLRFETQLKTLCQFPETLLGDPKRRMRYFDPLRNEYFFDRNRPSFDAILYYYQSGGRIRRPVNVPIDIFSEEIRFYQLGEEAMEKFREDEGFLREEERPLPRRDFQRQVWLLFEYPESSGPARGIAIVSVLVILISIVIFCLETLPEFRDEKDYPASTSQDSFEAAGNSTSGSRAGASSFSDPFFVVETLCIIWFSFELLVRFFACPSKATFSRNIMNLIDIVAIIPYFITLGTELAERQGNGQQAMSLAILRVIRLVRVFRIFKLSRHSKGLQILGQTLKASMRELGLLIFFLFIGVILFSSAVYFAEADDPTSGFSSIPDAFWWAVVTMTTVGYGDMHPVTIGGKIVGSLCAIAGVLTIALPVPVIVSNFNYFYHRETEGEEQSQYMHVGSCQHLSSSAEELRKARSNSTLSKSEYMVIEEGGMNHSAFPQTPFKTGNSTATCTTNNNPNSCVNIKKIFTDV
Description: Stage V–VI oocytes were isolated by partial ovariectomy from Xenopus laevis frogs (African clawed frogs). […] After anaesthetizing the frogs by a 15-min submersion in 0.1% tricaine methanesulfonate (amino benzoic acid ethyl ester; Merck, Kenilworth, NJ, USA), pH 7.0, the oocytes were collected. The isolated oocytes were then washed with a 1.5 mg/mL collagenase solution for 2 h to remove the follicle layer.
(§1) Ion channels (Kv1.x, Kv2.1, Kv4.2, Kv10.1) were expressed in Xenopus laevis oocytes by linearization of the plasmids and subsequent in vitro transcription using a commercial T7 or SP6 mMESSAGE mMACHINE transcription kit (Ambion, Carlsbad, California, USA). Defolliculated Xenopus oocytes were then injected with 20–50 nL of the cRNA at a concentration of 1 ng/nL using a micro-injector (Drummond Scientific1, Broomall, PA, USA). The oocytes were incubated in a solution containing (in mM): NaCl, 96; KCl, 2; CaCl2, 1.8; MgCl2, 2 and HEPES, 5 (pH 7.5), supplemented with 50 mg/L gentamycin sulfate and 90 mg/L theophylline.
Two-electrode voltage-clamp recordings were performed at room temperature (18–22 °C) using a Geneclamp 500 amplifier (Molecular Devices, San Jose, CA, USA) and pClamp data acquisition (Axon Instruments, Union City, CA, USA) and using an integrated digital TEVC amplifier controlled by HiClamp, an automated Voltage-Clamp Screening System (Multi Channel Systems MCS GmbH, Reutlingen, Germany). Whole-cell currents from oocytes were recorded 1–4 days after injection. The bath solution composition was ND96 (in mM): NaCl, 96; KCl, 2; CaCl2, 1.8; MgCl2, 2 and HEPES, 5 (pH 7.5). Voltage and current electrodes were filled with a 3 M solution of KCl in H2O. […] The elicited Kv1.x, Kv2.1, Kv4.2 and Kv10.1 currents were filtered at 0.5 kHz and sampled at 2 kHz using a four-pole low-pass Bessel filter. Leak subtraction was performed using a P/4 protocol.
(§2) For the electrophysiological analysis of the compounds, a number of protocols were applied from a holding potential of −90 mV. Currents for Kv1.x, Kv2.1, Kv4.2 and Kv10.1 were evoked by 1 s depolarizing pulses either to 0 mV or to a range of voltage steps between −80 mV and +40 mV. For the analysis of the data, only the inhibition at the 0 mV step was used. The concentration dependency of all compounds was assessed by measuring the current inhibition in the presence of increasing compound concentrations. […] From this stock solution, adequate dilutions with a maximum of 0.5% DMSO were made for testing.
All electrophysiological data (Figure S1) are presented as means ± S.E.M of n ≥ three independent experiments unless otherwise indicated. […] The Dunnett test and one-way ANOVA were performed to calculate the significance of the induced inhibition compared to the control.

KV1.1 = KV1.1 (Rattus norvegicus, UniProt P10499); assay: Selectivity, HiClamp Xenopus laevis heterologous expression system, KV1.1; conditions: at a concentration of the compound's IC50 value for KV1.3
Sequence of KV1.1 (P10499 whole entry): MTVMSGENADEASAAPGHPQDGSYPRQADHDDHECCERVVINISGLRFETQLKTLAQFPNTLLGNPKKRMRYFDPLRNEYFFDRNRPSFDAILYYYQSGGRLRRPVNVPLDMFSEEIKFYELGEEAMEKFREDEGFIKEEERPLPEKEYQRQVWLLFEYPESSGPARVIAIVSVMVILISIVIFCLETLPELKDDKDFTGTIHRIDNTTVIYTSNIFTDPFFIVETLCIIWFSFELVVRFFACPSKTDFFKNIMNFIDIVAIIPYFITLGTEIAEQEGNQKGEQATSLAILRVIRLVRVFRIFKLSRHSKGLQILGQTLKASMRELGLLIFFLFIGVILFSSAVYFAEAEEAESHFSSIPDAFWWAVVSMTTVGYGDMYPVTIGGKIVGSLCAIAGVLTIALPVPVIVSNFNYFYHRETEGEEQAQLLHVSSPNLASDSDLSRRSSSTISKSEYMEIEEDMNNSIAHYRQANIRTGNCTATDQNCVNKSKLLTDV
Description: as §1, with “theophylline. After ex vivo translation, the ion channels were correctly inserted in the cell membrane of the oocytes.” for “theophylline.”
(§3) Two-electrode voltage-clamp recordings were performed at room temperature (18–22 °C) using a Geneclamp 500 amplifier (Molecular Devices, San Jose, CA, USA) and pClamp data acquisition (Axon Instruments, Union City, CA, USA) and using an integrated digital TEVC amplifier controlled by HiClamp, an automated Voltage-Clamp Screening System (Multi Channel Systems MCS GmbH, Reutlingen, Germany). Whole-cell currents from oocytes were recorded 1–4 days after injection. The bath solution composition was ND96 (in mM): NaCl, 96; KCl, 2; CaCl2, 1.8; MgCl2, 2 and HEPES, 5 (pH 7.5). Voltage and current electrodes were filled with a 3 M solution of KCl in H2O. Resistances of both electrodes were kept between 0.5 and 1.5 MΩ. The elicited Kv1.x, Kv2.1, Kv4.2 and Kv10.1 currents were filtered at 0.5 kHz and sampled at 2 kHz using a four-pole low-pass Bessel filter. Leak subtraction was performed using a P/4 protocol.
as §2
(§4) All electrophysiological data (Figure S1) are presented as means ± S.E.M of n ≥ three independent experiments unless otherwise indicated. All data were analyzed using pClamp Clampfit 10.4 (Molecular Devices, Downingtown, PA, USA), OriginPro 9 (Originlab, Northampton, MA, USA), GraphPad Prism 8 software (GraphPad Software, Inc., San Diego, CA, USA) and DataMining (Multi Channel Systems MCS GmbH, Reutlingen, Germany). The Dunnett test and one-way ANOVA were performed to calculate the significance of the induced inhibition compared to the control.

KV1.2 = KV1.2 (Homo sapiens, UniProt P16389); assay: Selectivity, HiClamp Xenopus laevis heterologous expression system, KV1.2; conditions: for Effect on KV1.2 channel: at a concentration of the compound's IC50 value for KV1.3; for IC50: HiClamp, oocytes, NA = no significant inhibition, no IC50 determined
Sequence of KV1.2 (P16389 whole entry): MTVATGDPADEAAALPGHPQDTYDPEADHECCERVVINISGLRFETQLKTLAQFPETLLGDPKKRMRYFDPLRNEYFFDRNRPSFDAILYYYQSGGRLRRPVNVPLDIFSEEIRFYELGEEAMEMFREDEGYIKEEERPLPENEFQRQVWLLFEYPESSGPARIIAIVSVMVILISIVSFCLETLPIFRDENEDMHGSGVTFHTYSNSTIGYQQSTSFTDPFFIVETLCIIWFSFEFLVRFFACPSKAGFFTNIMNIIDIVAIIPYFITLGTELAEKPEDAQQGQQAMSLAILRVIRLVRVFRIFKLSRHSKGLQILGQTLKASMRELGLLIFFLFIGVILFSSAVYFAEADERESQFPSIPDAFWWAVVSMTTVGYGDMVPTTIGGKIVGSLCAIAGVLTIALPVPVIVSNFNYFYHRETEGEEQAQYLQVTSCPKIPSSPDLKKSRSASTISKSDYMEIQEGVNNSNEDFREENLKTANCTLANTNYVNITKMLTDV
Description: as §1, with “theophylline. After ex vivo translation, the ion channels were correctly inserted in the cell membrane of the oocytes.” for “theophylline.”
as §3, §2, §4

Colo-357 cells = assay: Cell proliferation (culture confluency, IncuCyte) in 2D culture, Colo-357; conditions: 100 µM, confluence by live cell imaging
Description: Cell lines Panc-1 (ACC 783) and Colo-357 (CVCL_0221) were obtained through the validated collection of the pHioniC consortium (MSC-ITN 813834). Both cell lines were grown in RPMI1640, supplemented with 1 mM sodium pyruvate and 1% Glutamax (all Gibco Thermo-Fisher, Waltham, MA USA) 10%FBS (BioChrom, Berlin, Germany), at 5% CO2 and 37 °C in a humidified atmosphere.
For cell proliferation assays, cells were seeded at a density of 10,000 cells/well in 96-well flat bottom culture plates (Corning, Kaiseslautern, Germany) and proliferation was measured through culture confluency using an IncuCyte device (Sartorius, Göttingen, Germany). Every hour, two phase contrast images per well were acquired, and a confluency mask was generated by training the analysis algorithm using representative images. Every image was then analyzed using the obtained parameters to determine culture confluency. Treatments were then added when cells reached a confluency of ~30% (Panc-1) or ~55% (Colo-357), and proliferation was determined for the following 60 h. Proliferation is reported as confluency increase with respect to the start of the treatment.

| inhibition at 10 µM (KV1.3) | IC50 (KV1.3) | Effect on KV1.1 channel (KV1.1) | Effect on KV1.2 channel (KV1.2) | IC50 (KV1.2) | SMILES | Growth of Colo-357 cells (Colo-357 cells) |
| --- | --- | --- | --- | --- | --- | --- |
| 96 ± 1% | 470 nM | no significant effects | no significant effects |  | COc1ccccc1C(=O)NCC1(c2ccsc2)CCOCC1 [Compound 44] | not significantly affected; also recorded: unaffected |
| 94 ± 1% | 3960 ± 470 nM | significantly inhibited | significantly inhibited | 2340 ± 260 nM | COc1ccc(F)cc1C(=O)NCC1(c2ccccc2)CCOCC1 [Compound 37] | not significantly affected; also recorded: unaffected |
| 92 ± 4% | 570 nM | significant effects | significant effects | 4000 ± 200 nM | COc1ccccc1C(=O)NCC1(c2cccs2)CCOC1 (centres unmarked) [Compound 14] | not significantly affected; also recorded: unaffected |
| 92 ± 1% | 590 nM | significant effects | significant effects | 2760 ± 560 nM | COc1ccccc1C(=O)NCC1(c2cccs2)CCOCC1 [Compound 43] | not significantly affected; also recorded: unaffected |
